Assay results as given in patent publication US12290519B2, “Anti-inflammatory coupling compound drug, and preparation method therefor and use thereof” (COVAL BIOPHARMA (SHANGHAI) CO., LTD., priority 2021, dated 2025).

Assay: Hydrolysis rate / drug release rate of the compounds (release of JAK inhibitor, HPLC)
Format: physicochemical
Settings: % release of JAK inhibitor from sample in acetonitrile/water=7/3 (v/v), 37° C. constant temperature shaker, sampled days 1-4, HPLC
Method in brief: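 HPLC quantified parent JAK inhibitor freed from each compound, calibrated with 0.0002–0.08 mg/mL standards. Samples in acetonitrile/water 7/3 were kept sealed at 37° C and analysed at day 0 and on days 1 to 4. % release was computed from sample weight, curve slope/intercept and the molecular-weight ratio.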

Release Rate (%/day) | SMILES
<0.01 %/day | CCS(=O)(=O)N1CC(CC#N)(n2cc(-c3ncnc4c3ccn4COC(=O)C(C)c3ccc(CC4CCCC4=O)cc3)cn2)C1 (stereo not drawn) [Ex. 72, Methyl (4-(1-(3-(cyanomethyl)-1-(ethylsulfonyl)azetidin-3-yl)-1H-pyrazol-4-yl)-7H1-pyrrolo [2,3-d]pyrimidin-7-yl) 2-(4-((2-oxocyclopentyl)methyl)phenyl) propanoate]
0.2 %/day | CCS(=O)(=O)N1CC(CC#N)(n2cc(-c3ncnc4c3ccn4COC(=O)Cc3c(C)n(C(=O)c4ccc(Cl)cc4)c4ccc(OC)cc34)cn2)C1 [Ex. 73, Methyl (4-(1-(3-(cyanomethyl)-1-(ethylsulfonyl)azetidin-3-yl)-1H-pyrazol-4-yl)-7H-pyrrolo [2,3-d]pyrimidin-7-yl) 2-(1-(4-chlorobenzoyl)-5-methoxy-2-methyl-1H-indol-3-yl) acetate]
10.38 %/day | N#CC[C@H](C1CCCC1)n1cc(-c2ncnc3c2ccn3C(=O)Cc2ccccc2Nc2c(Cl)cccc2Cl)cn1 [Ex. 75, (R)-3-cyclopentyl-3-(4-(7-(2-(2-((2,6-dichlorophenyl)amino)phenyl)acetyl)-7H-pyrrolo [2,3-d]pyrimidin-4-yl)-1H-pyrazol-1-yl) propanenitrile]
0.05 %/day | CCC(C(=O)OCn1ccc2c(-c3cnn(C4(CC#N)CN(S(=O)(=O)CC)C4)c3)ncnc21)c1ccc(N2Cc3ccccc3C2=O)cc1 (stereo not drawn) [Ex. 76, Methyl (4-(1-(3-(cyanomethyl)-1-(ethylsulfonyl)azetidin-3-yl)-1H-pyrazol-4-yl)-7H-pyrrolo [2,3-d]pyrimidin-7-yl) 2-(4-(1-oxoisoindolin-2-yl)phenyl) butanoate]
7.38 %/day | COc1ccc2c(c1)c(CC(=O)n1ccc3c(-c4cnn([C@H](CC#N)C5CCCC5)c4)ncnc31)c(C)n2C(=O)c1ccc(Cl)cc1 [Ex. 79, (R)-3-(4-(7-(2-(1-(4-chlorobenzoyl)-5-methoxy-2-methyl-1H-indol-3-yl)acetyl)-7H-pyrrolo [2,3-d]pyrimidin-4-yl)-1H-pyrazol-1-yl)-3-cyclopentylpropanenitrile]
0.013 %/day | CCS(=O)(=O)N1CC(CC#N)(n2cc(-c3ncnc4c3ccn4COC(=O)c3ccccc3Nc3cccc(Cl)c3C)cn2)C1 [Ex. 81, Methyl (4-(1-(3-(cyanomethyl)-1-(ethylsulfonyl)azetidin-3-yl)-1H-pyrazol-4-yl)-7H-pyrrolo [2,3-d]pyrimidin-7-yl) 2-((3-chloro-2-methylphenyl)amino) benzoate]
0.003 %/day | CCS(=O)(=O)N1CC(CC#N)(n2cc(-c3ncnc4c3ccn4COC(=O)c3ccccc3Nc3cccc(C)c3C)cn2)C1 [Ex. 83, Methyl (4-(1-(3-(cyanomethyl)-1-(ethylsulfonyl)azetidin-3-yl)-1H-pyrazol-4-yl)-7H-pyrrolo [2,3-d]pyrimidin-7-yl) 2-((2,3-dimethylphenyl)amino) benzoate]
0.06 %/day | CCS(=O)(=O)N1CC(CC#N)(n2cc(-c3ncnc4c3ccn4COC(=O)Cc3ccc(NC(C)=O)cc3)cn2)C1 [Ex. 84, Methyl (4-(1-(3-(cyanomethyl)-1-(ethylsulfonyl)azetidin-3-yl)-1H-pyrazol-4-yl)-7H-pyrrolo [2,3-d]pyrimidin-7-yl) 2-(4-acetamidophenyl) acetate]
0.61 %/day | CCc1cccc2c3c([nH]c12)C(CC)(CC(=O)OCn1ccc2c(-c4cnn(C5(CC#N)CN(S(=O)(=O)CC)C5)c4)ncnc21)OCC3 (stereo not drawn) [Ex. 85, Methyl (4-(1-(3-(cyanomethyl)-1-(ethylsulfonyl)azetidin-3-yl)-1H-pyrazol-4-yl)-7H-pyrrolo [2,3-d]pyrimidin-7-yl) 2-(1,8-diethyl-1,3,4,9-tetrahydropyrano [3,4-b]indol-1-yl) acetate]
<0.01 %/day | CC(C)Cc1ccc([C@H](C)C(=O)OCn2ccc3c(-c4cnn([C@H](CC#N)C5CCCC5)c4)ncnc32)cc1 [Ex. 86, (4-(1-((R)-2-cyano-1-cyclopentylethyl)-1H-pyrazol-4-yl)-7H-pyrrolo [2,3-d]pyrimidin-7-yl) methyl (S)-2-(4-isobutylphenyl) propanoate]
0.01 %/day | COc1ccc2cc([C@H](C)C(=O)OCn3ccc4c(-c5cnn([C@H](CC#N)C6CCCC6)c5)ncnc43)ccc2c1 [Ex. 87, (4-(1-((R)-2-cyano-1-cyclopentylethyl)-1H-pyrazol-4-yl)-7H-pyrrolo [2,3-d]pyrimidin-7-yl) methyl (S)-2-(6-methoxynaphthalen-2-yl) propanoate]

The remaining lines, values behind:

SMILES | Release Rate (%/day)
CCS(=O)(=O)N1CC(CC#N)(n2cc(-c3ncnc4c3ccn4COC(=O)[C@@H](NC(=O)OC(C)(C)C)c3ccccc3)cn2)C1 [Ex. 74, Methyl (4-(1-(3-(cyanomethyl)-1-(ethylsulfonyl)azetidin-3-yl)-1H-pyrazol-4-yl)-7H-pyrrolo [2,3-d]pyrimidin-7-yl) (S)-2-((tert-butoxycarbonyl)amino)-2-phenylacetate] | 0.44 %/day
CC(C(=O)n1ccc2c(-c3cnn([C@H](CC#N)C4CCCC4)c3)ncnc21)c1ccc(CC2CCCC2=O)cc1 (stereo partly drawn) [Ex. 77, (3R)-3-cyclopentyl-3-(4-(7-(2-(4-((2-oxocyclopentyl)methyl)phenyl)propanoyl)-7H-pyrrolo [2,3-d]pyrimidin-4-yl)-1H-pyrazol-1-yl) propanenitrile] | 3.69 %/day
CC(=O)Nc1ccc(CC(=O)n2ccc3c(-c4cnn([C@H](CC#N)C5CCCC5)c4)ncnc32)cc1 [Ex. 78, (R)—N-(4-(2-(4-(1-(2-cyano-1-cyclopentylethyl)-1H-pyrazol-4-yl)-7H-pyrrolo [2,3-d]pyrimidin-7-yl)-2-oxoethyl)phenyl) acetamide] | 6.27 %/day
CC(C)(C)OC(=O)N[C@H](C(=O)n1ccc2c(-c3cnn([C@H](CC#N)C4CCCC4)c3)ncnc21)c1ccccc1 [Ex. 80, Tert-butyl ((S)-2-(4-(1-((R)-2-cyano-1-cyclopentylethyl)-1H-pyrazol-4-yl)-7H-pyrrolo [2,3-d]pyrimidin-7-yl)-2-oxo-1-phenylethyl) carbamate] | 27.29 %/day
Cc1cccc(Nc2ccccc2C(=O)n2ccc3c(-c4cnn([C@H](CC#N)C5CCCC5)c4)ncnc32)c1C [Ex. 82, (R)-3-cyclopentyl-3-(4-(7-(2-((2,3-dimethylphenyl)amino)benzoyl)-7H-pyrrolo [2,3-d]pyrimidin-4-yl)-1H-pyrazol-1-yl) propanenitrile] | 0.43 %/day
CNS(=O)(=O)C[C@H]1CC[C@H](N(C)c2ncnc3c2ccn3COC(=O)[C@@H](C)c2ccc(CC(C)C)cc2)CC1 [Ex. 88, (4-(Methyl ((trans)-4-((N-methylsulfamoyl)methyl)cyclohexyl)amino)-7H-pyrrolo [2,3-d]pyrimidin-7-yl) methyl (S)-2-(4-isobutylphenyl) propanoate] | 0.17 %/day
CNS(=O)(=O)C[C@H]1CC[C@H](N(C)c2ncnc3c2ccn3COC(=O)[C@@H](C)c2ccc3cc(OC)ccc3c2)CC1 [Ex. 89, (4-(Methyl ((trans)-4-((N-methylsulfamoyl)methyl)cyclohexyl)amino)-7H-pyrrolo [2,3-d]pyrimidin-7-yl) methyl (S)-2-(6-methoxynaphthalen-2-yl) propanoate] | 0.16 %/day
